Test systems include NCI-H23; SK-MEL-28; BT-549; ACHN; HT-29; HCC 2998; SNB-19; UO-31; U-251; SN12C; NCI/ADR-RES; Hs-578T; SK-MEL-2; HCT-116; PC-3; IGROV-1; SR; OVCAR-8; UACC-62; MCF7.
Common to all, as to assay: growth of human tumour cells (NCI), 48 h

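Step 1: Grow cells in 96-well plates. Step 2: Expose to compound for 48 hours at 5 concentrations. Step 3: Interpolate endpoints linearly; if unreached, use highest concentration. At the GI50, growth is halved.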 Calls of active or inactive are those of the source. Cut-off read from the data, not from the text of the source: active = GI50 up to about 1.1 µM and inactive = higher.

Consider `CSC(SC)=C1CC(=O)Nc2ccccc2C1=O`, for which the GI50 was 29.9 µM (inactive) in the test on NCI-H23; 36.8 µM (inactive) in the test on SK-MEL-28; 40.3 µM (inactive) in the test on BT-549; > 100 µM (inactive) in the test on ACHN; > 100 µM (inactive) with HT-29; > 100 µM (inactive) in the test with HCC 2998. Further, the GI50 in the test with SNB-19 was > 100 µM (inactive); with UO-31, 55.1 µM (inactive); in the test on U-251 it was 40.3 µM (inactive); in the test on SN12C, 63.1 µM (inactive); with NCI/ADR-RES it was > 100 µM (inactive); with Hs-578T, 63.7 µM (inactive). For the same compound, the GI50 in the test on SK-MEL-2 is 53.3 µM (inactive); with HCT-116, > 100 µM (inactive); in the test with PC-3, > 100 µM (inactive); with IGROV-1, 35.9 µM (inactive); in the test with SR, 27.5 µM (inactive); with OVCAR-8, > 100 µM (inactive). The GI50 in the test with UACC-62 is 24.6 µM (inactive); with MCF7 it was 47.6 µM (inactive).
`COC(=O)CN(CC(=O)NCCCBr)C1CCCCC1N(CC(=O)OC)CC(=O)OC` (stereo not given): the GI50 in the test on NCI-H23, in the test with SK-MEL-28, with BT-549, in the test with ACHN, in the test with HT-29 and in the test with HCC 2998 was > 100 µM (inactive) in each case. For the same compound, the GI50 with SNB-19 was > 100 µM (inactive); with UO-31 it was 84.7 µM (inactive); in the test with U-251 it was > 100 µM (inactive); in the test with SN12C, > 100 µM (inactive); with NCI/ADR-RES, > 100 µM (inactive); in the test with Hs-578T, 53.7 µM (inactive). In addition, the GI50 in the test on SK-MEL-2, in the test with HCT-116, in the test with PC-3, in the test with IGROV-1, in the test with SR and in the test on OVCAR-8 was > 100 µM (inactive) throughout. For the same compound, the GI50 in the test on UACC-62 and in the test with MCF7 was > 100 µM (inactive) in each case.
Regarding `CC(=O)CCC[C@H](C)[C@@H](O)[C@@H]1O[C@H]([C@@]2(C)CCC(=O)O2)C[C@H]1C(=O)O`, the GI50 in the test with NCI-H23 is > 100 µM (inactive); with SK-MEL-28 it was > 100 µM (inactive); in the test on BT-549, 35.6 µM (inactive); in the test with ACHN, > 100 µM (inactive); with HT-29 it was > 100 µM (inactive); with HCC 2998 it was > 100 µM (inactive). For the same compound, the GI50 in the test on SNB-19, in the test with UO-31, with U-251, in the test on SN12C, in the test with NCI/ADR-RES and in the test with Hs-578T was > 100 µM (inactive) in each case. Also, the GI50 in the test with SK-MEL-2 was > 100 µM (inactive); in the test with HCT-116, > 100 µM (inactive); with PC-3 it was > 100 µM (inactive); with IGROV-1, > 100 µM (inactive); with SR, 37.2 µM (inactive); in the test on OVCAR-8, > 100 µM (inactive). Also, the GI50 with UACC-62 and in the test on MCF7 was > 100 µM (inactive) in each case.
For `COC1=CC(=O)C2=C(C1=O)[C@H]1CC[C@]3(C)[C@@H](O)CC[C@H]3[C@@H]1CC2`, the GI50 with NCI-H23 was 23.7 µM (inactive); in the test on SK-MEL-28, 18.9 µM (inactive); with BT-549, 17.9 µM (inactive); with ACHN, 18 µM (inactive); in the test on HT-29, 4.71 µM (inactive); in the test on HCC 2998, 20.7 µM (inactive). For the same compound, the GI50 in the test on SNB-19 was 24.4 µM (inactive); with UO-31, 20.7 µM (inactive); in the test on U-251, 17 µM (inactive); with SN12C it was 17 µM (inactive); with NCI/ADR-RES it was 27.5 µM (inactive); with Hs-578T, 19.9 µM (inactive). The GI50 is 13.9 µM (inactive) in the test on SK-MEL-2; 17 µM (inactive) with HCT-116; 16.4 µM (inactive) in the test on PC-3; 21.9 µM (inactive) with IGROV-1; 23.3 µM (inactive) in the test on SR; 17.8 µM (inactive) in the test with OVCAR-8. Besides, the GI50 in the test with UACC-62 is 17.5 µM (inactive); in the test with MCF7 it was 17 µM (inactive).
For the compound `CC(C)c1cc2c(c(O)c1O)[C@@]1(C(=O)O)CCCC(C)(C)[C@@H]1CC2` [CARNOSIC ACID], the GI50 was 20 µM (inactive) with NCI-H23; 13.2 µM (inactive) with SK-MEL-28; 10.5 µM (inactive) with BT-549; 13.4 µM (inactive) with ACHN; 16.3 µM (inactive) with HT-29; 13.2 µM (inactive) in the test on HCC 2998. Besides, the GI50 in the test with SNB-19 was > 10 µM (inactive); in the test on UO-31, 14.4 µM (inactive); in the test on U-251 it was 13.8 µM (inactive); in the test on SN12C, 24 µM (inactive); with NCI/ADR-RES it was 15.6 µM (inactive); in the test with Hs-578T, 24.1 µM (inactive). The GI50 was 18.9 µM (inactive) in the test on SK-MEL-2; 28.7 µM (inactive) with HCT-116; 15.3 µM (inactive) with PC-3; 19.4 µM (inactive) in the test on IGROV-1; 5.33 µM (inactive) in the test with SR; 15.3 µM (inactive) in the test on OVCAR-8. The GI50 in the test on UACC-62 was 13.9 µM (inactive); in the test on MCF7 it was 18.9 µM (inactive).
Consider `CC(=O)Nc1c2sscc-2n(C)c1=O` [THIOLUTIN], for which the GI50 in the test on NCI-H23 is 0.853 µM (active); with SK-MEL-28, 1.37 µM (inactive); with BT-549, 1.43 µM (inactive); with ACHN it was 0.984 µM (active); in the test with HT-29 it was 0.272 µM (active); in the test with HCC 2998, 0.587 µM (active). Also, the GI50 in the test on SNB-19 was 1.96 µM (inactive); with UO-31 it was 2.1 µM (inactive); in the test on U-251, 1.12 µM (active); in the test with SN12C, 1.87 µM (inactive); in the test with NCI/ADR-RES it was 1.16 µM (inactive); in the test on Hs-578T it was 2.6 µM (inactive). Besides, the GI50 with SK-MEL-2 was 1.88 µM (inactive); in the test on HCT-116, 0.695 µM (active); in the test on PC-3, 1.58 µM (inactive); in the test on IGROV-1, 1.86 µM (inactive); in the test on SR it was 0.235 µM (active); in the test on OVCAR-8 it was 0.638 µM (active). Further, the GI50 with UACC-62 is 0.443 µM (active); in the test on MCF7 it was 0.63 µM (active).
Consider `Cc1c(-c2ccccc2)c(C#N)c2nnn(C)c(=O)n12`, for which the GI50 in the test on NCI-H23, in the test on SK-MEL-28, in the test on BT-549, with ACHN, with HT-29 and in the test with HCC 2998 was > 100 µM (inactive) each time. Also, the GI50 in the test on SNB-19, in the test on UO-31, in the test on U-251, in the test on SN12C, in the test on NCI/ADR-RES and with Hs-578T was > 100 µM (inactive) throughout. Besides, the GI50 in the test on SK-MEL-2 was > 100 µM (inactive); with HCT-116, > 100 µM (inactive); with PC-3 it was 64.3 µM (inactive); in the test with IGROV-1, > 100 µM (inactive); in the test on SR, 65.6 µM (inactive); in the test with OVCAR-8, > 100 µM (inactive). Besides, the GI50 in the test on UACC-62 and in the test on MCF7 was > 100 µM (inactive) throughout.
In the case of `Cc1c2ccc3ccccc3c2c[n+]2ccccc12`, the GI50 in the test on NCI-H23 is 4.91 µM (inactive); with SK-MEL-28 it was 9.55 µM (inactive); in the test on BT-549, 2.96 µM (inactive); with ACHN it was 56.5 µM (inactive); with HT-29, 27.5 µM (inactive); in the test with HCC 2998, 4.92 µM (inactive). Besides, the GI50 in the test with SNB-19 is 2.64 µM (inactive); in the test on UO-31 it was 17.5 µM (inactive); in the test on U-251, 1.66 µM (inactive); in the test with SN12C it was 2.94 µM (inactive); with NCI/ADR-RES it was 55.2 µM (inactive); with Hs-578T it was 2.26 µM (inactive). For the same compound, the GI50 with SK-MEL-2 is 11.6 µM (inactive); in the test with HCT-116 it was 17.1 µM (inactive); with PC-3, 26.7 µM (inactive); in the test with IGROV-1, 43.5 µM (inactive); in the test on SR it was 2.96 µM (inactive); in the test on OVCAR-8 it was 4.5 µM (inactive). In addition, the GI50 in the test on UACC-62 is 13.6 µM (inactive); with MCF7, 10.4 µM (inactive).
`Nc1ccc(Oc2ccc(C3(c4ccc(Oc5ccc(N)cc5)cc4)C4CC5C6CC7CC5C3C(C7)C6C4)cc2)cc1`: the GI50 with NCI-H23 was 26.3 µM (inactive); in the test on SK-MEL-28, > 100 µM (inactive); in the test with BT-549, > 100 µM (inactive); in the test with ACHN, 48.5 µM (inactive); in the test on HT-29, 0.774 µM (active); with HCC 2998 it was 1.07 µM (active). Moreover, the GI50 is 37.4 µM (inactive) in the test with SNB-19; 5.24 µM (inactive) with UO-31; 1.03 µM (active) with U-251; 12.1 µM (inactive) in the test on SN12C; > 100 µM (inactive) with NCI/ADR-RES; 62.5 µM (inactive) with Hs-578T. Moreover, the GI50 in the test on SK-MEL-2 is > 100 µM (inactive); in the test with HCT-116, 18.3 µM (inactive); with PC-3, > 45.4 µM (inactive); in the test on IGROV-1, > 52.1 µM (inactive); in the test on SR it was 9.2 µM (inactive); in the test on OVCAR-8, 4.97 µM (inactive). Besides, the GI50 in the test with UACC-62 was 38.4 µM (inactive); in the test with MCF7 it was 7.53 µM (inactive).
For `COC1/C=C/C(C)C(C(C)C(OC)C(C)CCC(=O)C(C)C(C/C=C/N(C)C=O)OC)OC(=O)/C=C/C=C(\C)CC(OC)C(OC)C2=CC(=O)O[C@@H](C(C)C(OC)CC(OC)/C=C/C(C)C(O)C1)[C@H]2O` (stereo not given in full), the GI50 with NCI-H23 was 0.145 µM (active); in the test on SK-MEL-28, 0.192 µM (active); with BT-549 it was 0.117 µM (active); with ACHN, 0.0914 µM (active); in the test on HT-29, 0.0615 µM (active); with HCC 2998, 0.0716 µM (active). Besides, the GI50 with SNB-19 is 0.171 µM (active); in the test on UO-31, 0.137 µM (active); with U-251, 0.111 µM (active); in the test on SN12C, 0.126 µM (active); with NCI/ADR-RES, 0.226 µM (active); with Hs-578T, 0.0336 µM (active). The GI50 in the test on SK-MEL-2 is 0.0276 µM (active); with HCT-116, < 0.0222 µM (active); in the test with PC-3, 0.0855 µM (active); with IGROV-1, 0.119 µM (active); in the test on SR it was 0.0809 µM (active); with OVCAR-8, 0.22 µM (active). The figures for the GI50 with UACC-62 and in the test with MCF7 were 0.137 µM (active) and 0.208 µM (active), respectively.
